Measurements reported in PubChem BioAssay AID330 (DTP/NCI, 2004).
“And” between values parts separate entries of the source, which are not always exact repeats. Identical values can stand only once. Inconclusive results and toxic doses are left out.

Test system: P388 leukemia ip, CD2F1 mice, survival T/C
Assay: NCI In Vivo Anticancer Drug Screen. Data for tumor model P388 Leukemia (intraperitoneal) in CD2F1 (CDF1) mice
Conditions: endpoint: median survival time, higher = longer survival
Method in brief: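 Mice carrying the transplanted tumor received test compound or vehicle. Survival was recorded in each group, and the value is the treated-group measurement divided by that of the vehicle-treated control group.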

[1] = dose: 50.0 mg/kg/injection, schedule: Q01DX005 (ip), vehicle: saline with Tween-80
[2] = dose: 100.0 mg/kg/injection, schedule: Q01DX005 (ip), vehicle: saline with Tween-80
[3] = dose: 200.0 mg/kg/injection, schedule: Q01DX005 (ip), vehicle: saline with Tween-80
[4] = dose: 60.0 mg/kg/injection, schedule: Q01DX005 (ip), vehicle: saline with Tween-80
[5] = dose: 120.0 mg/kg/injection, schedule: Q01DX005 (ip), vehicle: saline with Tween-80
[6] = dose: 240.0 mg/kg/injection, schedule: Q01DX005 (ip), vehicle: saline with Tween-80
[7] = dose: 12.5 mg/kg/injection, schedule: Q01DX005 (ip), vehicle: Klucel (hydroxypropylcellulose) (HPC)
[8] = dose: 25.0 mg/kg/injection, schedule: Q01DX005 (ip), vehicle: Klucel (hydroxypropylcellulose) (HPC)
[9] = dose: 50.0 mg/kg/injection, schedule: Q01DX005 (ip), vehicle: Klucel (hydroxypropylcellulose) (HPC)
[10] = dose: 100.0 mg/kg/injection, schedule: Q01DX001 (ip), vehicle: Klucel (hydroxypropylcellulose) (HPC)
[11] = dose: 200.0 mg/kg/injection, schedule: Q01DX001 (ip), vehicle: Klucel (hydroxypropylcellulose) (HPC)
[12] = dose: 50.0 mg/kg/injection, schedule: Q01DX009 (ip), vehicle: Klucel (hydroxypropylcellulose) (HPC)
[13] = dose: 100.0 mg/kg/injection, schedule: Q01DX009 (ip), vehicle: Klucel (hydroxypropylcellulose) (HPC)
[14] = dose: 200.0 mg/kg/injection, schedule: Q01DX009 (ip), vehicle: Klucel (hydroxypropylcellulose) (HPC)
[15] = dose: 100.0 mg/kg/injection, schedule: Q01DX005 (ip), vehicle: Klucel (hydroxypropylcellulose) (HPC)
[16] = dose: 200.0 mg/kg/injection, schedule: Q01DX005 (ip), vehicle: Klucel (hydroxypropylcellulose) (HPC)

`CCCCCCCCCCCCCCCCCC(=O)OCCCCCCCCCCCCC` was tested, and the T/C (dose: 100.0 mg/kg/injection, schedule: Q01DX001 (ip), vehicle: other) was 95 % of control, the T/C (dose: 200.0 mg/kg/injection, schedule: Q01DX001 (ip), vehicle: other) was 100 % of control and the T/C (dose: 400.0 mg/kg/injection, schedule: Q01DX001 (ip), vehicle: other) was 95 % of control.

In the case of `COc1cc(CCc2cc(OC)c(OC)c(OC)c2)cc(OC)c1OC`, the T/C (dose: 31.25 mg/kg/injection, schedule: Q01DX009 (ip), vehicle: saline + Tween-80 + alcohol) was 98 % of control, the T/C (dose: 62.5 mg/kg/injection, schedule: Q01DX009 (ip), vehicle: saline + Tween-80 + alcohol) was 91 % of control and the T/C (dose: 125.0 mg/kg/injection, schedule: Q01DX009 (ip), vehicle: saline + Tween-80 + alcohol) was 102 % of control. For the same molecule, the T/C (dose: 250.0 mg/kg/injection, schedule: Q01DX009 (ip), vehicle: saline + Tween-80 + alcohol) was 87 % of control.

`N#CC1=C(O)/C(=C\c2ccc(Cl)c(Cl)c2)N=C1N` was tested, and the T/C [1] was 89 % of control, the T/C [2] was 90 % of control and the T/C [3] was 97 % of control.

In the case of `O=C(Nc1ccc(Cl)cc1)Nc1nnc2nc(C(C(=O)/C=C/c3ccccc3)c3nc4nnc(NC(=O)Nc5ccc(Cl)cc5)n4[nH]c3=O)c(=O)[nH]n12`, the T/C [4] was 103 % of control, the T/C [5] was 95 % of control and the T/C [6] was 91 % of control.

`O=NN(CCCl)C(=O)NCCSSCCNC(=O)N(CCCl)N=O` (tested in a mixture with another compound) was tested, and the T/C [7] was 179 % of control and 211 % of control, the T/C [8] was 224 % of control and the T/C [9] was 120 % of control and 201 % of control.

For `c1ccc(-c2nnn(CCCN3CCOCC3)n2)cc1`, the T/C [10] was 100 % of control, the T/C [11] was 97 % of control and the T/C (dose: 400.0 mg/kg/injection, schedule: Q01DX001 (ip), vehicle: Klucel (hydroxypropylcellulose) (HPC)) was 102 % of control.

With `O=C1C=C(CCC2=CC(=O)c3ccccc3C2=O)C(=O)c2ccccc21` the T/C [4] was 100 % of control and the T/C [5] was 94 % of control.

With `Nc1n[nH]c(N)c1N=Nc1ccccc1` the T/C [12] was 98 % of control, the T/C [13] was 99 % of control and the T/C [14] was 93 % of control. The T/C (dose: 400.0 mg/kg/injection, schedule: Q01DX009 (ip), vehicle: Klucel (hydroxypropylcellulose) (HPC)) was 94 % of control.

With `CC(C)C1[C@H]2OC(=O)[C@@H]1C1CCC3CN(C)C2C31C` (some centres not stated) the T/C (dose: 1.25 mg/kg/injection, schedule: Q01DX005 (ip), vehicle: Klucel (hydroxypropylcellulose) (HPC)) was 99 % of control, the T/C (dose: 2.5 mg/kg/injection, schedule: Q01DX005 (ip), vehicle: Klucel (hydroxypropylcellulose) (HPC)) was 99 % of control and the T/C (dose: 5.0 mg/kg/injection, schedule: Q01DX005 (ip), vehicle: Klucel (hydroxypropylcellulose) (HPC)) was 96 % of control. The T/C (dose: 10.0 mg/kg/injection, schedule: Q01DX005 (ip), vehicle: Klucel (hydroxypropylcellulose) (HPC)) was 95 % of control.

In the case of `c1ccc2c(c1)ccc1c3ccccc3ncc21`, the T/C (dose: 12.5 mg/kg/injection, schedule: Q04DX003 (ip), vehicle: distilled water + Tween-80) was 107 % of control, the T/C (dose: 25.0 mg/kg/injection, schedule: Q04DX003 (ip), vehicle: distilled water + Tween-80) was 96 % of control and the T/C (dose: 50.0 mg/kg/injection, schedule: Q04DX003 (ip), vehicle: distilled water + Tween-80) was 98 % of control. The T/C (dose: 100.0 mg/kg/injection, schedule: Q04DX003 (ip), vehicle: distilled water + Tween-80) was 102 % of control, the T/C (dose: 200.0 mg/kg/injection, schedule: Q04DX003 (ip), vehicle: distilled water + Tween-80) was 102 % of control and the T/C (dose: 400.0 mg/kg/injection, schedule: Q04DX003 (ip), vehicle: distilled water + Tween-80) was 98 % of control.

In the case of `C[N+](C)(Cc1ccccc1)[N-]C(=N)c1ccccc1`, the T/C (dose: 12.5 mg/kg/injection, schedule: Q04DX003 (ip), vehicle: Klucel (hydroxypropylcellulose) (HPC)) was 105 % of control, the T/C (dose: 25.0 mg/kg/injection, schedule: Q04DX003 (ip), vehicle: Klucel (hydroxypropylcellulose) (HPC)) was 101 % of control and the T/C (dose: 50.0 mg/kg/injection, schedule: Q04DX003 (ip), vehicle: Klucel (hydroxypropylcellulose) (HPC)) was 100 % of control. For the same molecule, the T/C (dose: 100.0 mg/kg/injection, schedule: Q04DX003 (ip), vehicle: Klucel (hydroxypropylcellulose) (HPC)) was 103 % of control.

For `COC(=O)c1cc(=O)c2c(ccc3oc(=O)ccc32)[nH]1`, the T/C [1] was 88 % of control, the T/C [2] was 88 % of control and the T/C [3] was 90 % of control.

For `COc1cccc2c1C(=O)c1c(O)c3c(c(O)c1C2=O)CC(O)(C(=O)CO)CC3OC1CC(NCC2(O)OCC(O)C(O)C2O)C(O)C(C)O1` (configuration not stated), the T/C (dose: 14.5 mg/kg/injection, schedule: Q04DX003 (ip), vehicle: water) was 179 % of control, the T/C (dose: 29.0 mg/kg/injection, schedule: Q04DX003 (ip), vehicle: water) was 239 % of control and the T/C (dose: 58.0 mg/kg/injection, schedule: Q04DX003 (ip), vehicle: water) was 116 % of control.

`CCC(/C=C/c1ccccc1)=N\Nc1ccccc1` was tested, and the T/C [1] was 104 % of control, the T/C [2] was 105 % of control and the T/C [3] was 104 % of control. For the same molecule, the T/C (dose: 400.0 mg/kg/injection, schedule: Q01DX005 (ip), vehicle: saline with Tween-80) was 98 % of control.

With `CN(C)C(=O)c1cc(N2CC2)c([N+](=O)[O-])cc1[N+](=O)[O-]` the T/C (dose: 1.56 mg/kg/injection, schedule: Q01DX009 (ip), vehicle: saline with Tween-80) was 98 % of control and 117 % of control, the T/C (dose: 3.12 mg/kg/injection, schedule: Q01DX009 (ip), vehicle: saline with Tween-80) was 115 % of control and the T/C (dose: 6.25 mg/kg/injection, schedule: Q01DX009 (ip), vehicle: saline with Tween-80) was 100 % of control and 101 % of control and 113 % of control. For the same molecule, the T/C (dose: 25.0 mg/kg/injection, schedule: Q01DX009 (ip), vehicle: saline with Tween-80) was 110 % of control.

For `CC1NS(=O)(=O)c2ccccc2C1=O` (configuration not stated), the T/C (dose: 100.0 mg/kg/injection, schedule: Q04DX003 (ip), vehicle: saline) was 100 % of control, the T/C (dose: 200.0 mg/kg/injection, schedule: Q04DX003 (ip), vehicle: saline) was 101 % of control and the T/C (dose: 400.0 mg/kg/injection, schedule: Q04DX003 (ip), vehicle: saline) was 108 % of control.

In the case of `C=CCOc1cc2c(cc1C(C)c1ccc(OCC)cc1)OCO2` (configuration not stated), the T/C [1] was 100 % of control and 104 % of control, the T/C [2] was 112 % of control and 91 % of control and the T/C [3] was 122 % of control and 123 % of control.

`CC(C)(C)C(=O)NNc1cccc(Cl)n1` was tested, and the T/C (dose: 50.0 mg/kg/injection, schedule: Q01DX001 (ip), vehicle: Klucel (hydroxypropylcellulose) (HPC)) was 109 % of control, the T/C [10] was 98 % of control and the T/C [11] was 100 % of control.

`CSc1nsc(SC)c1-c1ccc(Cl)cc1` was tested, and the T/C [12] was 99 % of control, the T/C [13] was 100 % of control and the T/C [14] was 92 % of control.

`C[CH2][Sn]1([Cl])[O]CCNCC[O]1` was tested, and the T/C [8] was 103 % of control, the T/C [9] was 103 % of control and 113 % of control and the T/C [15] was 116 % of control. The T/C [16] was 122 % of control.

`O=c1c(SSc2coc3ccccc3c2=O)coc2ccccc12` was tested, and the T/C [4] was 116 % of control, the T/C [5] was 102 % of control and the T/C [6] was 106 % of control.

`COC(=O)c1cc(=O)nc(N/N=C/c2cc(OC)ccc2OC)s1` was tested, and the T/C [1] was 95 % of control, the T/C [2] was 94 % of control and the T/C [3] was 95 % of control.

For `Cc1cc2c(=O)cc(-c3ccc(Cl)cc3)oc2c(C#N)c1C`, the T/C (dose: 60.0 mg/kg/injection, schedule: Q01DX005 (ip), vehicle: Klucel (hydroxypropylcellulose) (HPC)) was 89 % of control, the T/C (dose: 120.0 mg/kg/injection, schedule: Q01DX005 (ip), vehicle: Klucel (hydroxypropylcellulose) (HPC)) was 93 % of control and the T/C (dose: 240.0 mg/kg/injection, schedule: Q01DX005 (ip), vehicle: Klucel (hydroxypropylcellulose) (HPC)) was 100 % of control.

For `CC(=O)SCC(C)C(=O)N1CCCC1C(=O)NC(Cc1ccccc1)C(=O)O` (configuration not stated), the T/C [9] was 110 % of control, the T/C [15] was 98 % of control and the T/C [16] was 104 % of control.

In the case of `O=C1c2ccccc2C(=O)N1CCn1[nH]c(=O)c2ccccc2c1=O`, the T/C [4] was 99 % of control, the T/C [5] was 90 % of control and the T/C [6] was 96 % of control.

In the case of `CN=C(NC)c1ccc(NC(=O)c2cc(C(=O)Nc3ccc(C(=NC)NC)cc3)cc([N+](=O)[O-])c2)cc1`, the T/C (dose: 6.25 mg/kg/injection, schedule: Q01DX005 (ip), vehicle: Klucel (hydroxypropylcellulose) (HPC)) was 107 % of control and the T/C [7] was 119 % of control.

With `CCOC(=O)c1cc(CC)sc1NC(=O)CC(C)=O` the T/C [4] was 97 % of control, the T/C [5] was 100 % of control and the T/C [6] was 97 % of control.

In the case of `CCCCCCC(/C=C/c1ccc(Cl)c(Cl)c1)=N\Nc1c(Cl)cccc1Cl`, the T/C [12] was 91 % of control, the T/C [13] was 91 % of control and the T/C [14] was 87 % of control.
